Measurements as given in PubChem BioAssay AID1963425 (Molecular Pharmacology Branch, DTP, NCI, 2024).
Where “and” joins values, the source holds several entries; their conditions need not be identical. Equal entries are not always repeated.

Test system: 323965-272-R-J2-PDC complex spheroid growth, % test/control
Assay: Anticancer human tumor 323965-272-R-J2-PDC patient-derived pancreatic carcinoma cell line growth inhibition [Asc]
Conditions: for viability, T/C: stronger effect = lower value
Experimental: Multicellular complex tumor spheroid response to apoptosis pathway targeting inhibitors Alrizomadlin, Pelcitoclax, and Dasminapant in combination with a variety of drugs and investigational agents in selected tumor cell lines
The MDM2 inhibitor alrizomadlin, the Bcl-2/Bcl-xL inhibitor pelcitoclax, and the IAPs inhibitor dasminapant were evaluated both individually and in combination with standard of care and investigational anticancer small molecules within a complex spheroid model of solid tumors. . Complex spheroids include a stromal component modeled by human endothelial cells (HUVEC) and fibroblasts modeled by human mesenchymal stem cells (MSCs). The concentration ranges selected for each drug and investigational agent were based upon clinically achievable concentrations if the clinical Cmax of the agent was known.
Compounds. The drugs and investigational agents: alrizomadlin (APG-115; NSC831270), pelcitoclax (APG-1252; NSC835773), dasminapant (APG-1387;NSC834197), TAK-243 (NSC785004), copanlisib (NSC809693), olaparib (NSC753686), talazoparib (NSC767125), cobimetinib (NSC 768068), eltanexor (KPT-8602, NSC 794443), abemaciclib (NSC 768073), sotorasib (NSC818433), adagrasib (NSC 831453), MRTX-1133 (NSC 836407), Iadademestat (ORY1001, NSC 806812), and RMC-4630 (NSC839698), were obtained from the NCI Developmental Therapeutics Program Chemical Repository. The FDA-approved anticancer drug set is available from the Developmental Therapeutics Program at https://dtp.cancer.gov/organization/dscb/obtaining/available plates.htm. […] The stock solutions were prepared in dimethyl sulfoxide (DMSO, Sigma-Aldrich, St. Louis, MO, cat. D2650) at 800-fold the tested concentration and stored at -70 degrees C prior to their use. All drugs and investigational agents were tested over a range starting from a high concentration at or near the clinical Cmax and decreasing in half-log increments. If the clinical Cmax for an agent had not been determined, the highest concentration tested was 10 microM.
The patient-derived cancer (PDC) cell lines include five colon adenocarcinomas: 186277-243-T-J2-PDC, 616215-338-R-J1-PDC, 439559-082-T-J2-PDC, 463943-066-T-J2-PDC, and 519858-162-T-J1-PDC; three pancreatic carcinomas: 323965-272-R-J2-PDC, 521955-158-R6-J3-PDC, and 521955-158-R2-J5-PDC; two uterine sarcomas: 327498-152-R-J2-PDC and 993429-296-R-J1-PDC; two rhabdomyosarcomas: 755483-174-R-J1-PDC and 772245-204-R-J1-PDC; two soft tissue sarcomas: 126254-015-R-J1-PDC and 494315-158-R-J1-PDC; two malignant fibrous histiocytomas: 317291-083-R-J1-PDC and 596521-263-R-J1-PDC; two breast carcinomas: 171881-019-R-J1-PDC and 885512-296-R-J2-PDC; and one ovarian carcinoma: 6556581-035-R-J-PDC were obtained from the NCI PDMR, (https://pdmr.cancer.gov). The established cell lines HSSY-2 synovial sarcoma (RRID:CVCL 8719), SYO-1 synovial sarcoma (RRID:CVCL_7146), MPNST malignant peripheral neural sheath tumor were obtained from the Sloan Kettering Institute. The following established cell lines were purchased from the American Type Culture Collection (ATCC, Manassas, VA), Sor the received from the NCI repository:, PANC-1 pancreatic carcinoma (CRL-1469, RRID:CVCL_0480), OVCAR-5 ovarian carcinoma (RRID:CVCL_1628), OVCAR-8 ovarian carcinoma (RRID:CVCL_1629), , MCF-7 breast carcinoma (CRL-12584, RRID:CVCL_0031), MDA-MB-231 breast carcinoma (CRL-12532, RRID:CVCL_0062), NCI-H1876 small cell lung carcinoma (CRL-5902, RRID:CVCL_1503), NCI-H510A small cell lung carcinoma (HTB-184, RRID:CVCL_1565), NCI-H1417 (CRL-5869, RRID:CVCL_1469), and NCI-H196 small cell lung carcinoma (CRL-5823, RRID:CVCL_1509). Dr. Peter Houghton (Greehey Children's Cancer Research Institute, University of Texas Health Science Center, San Antonio, TX) provided Rh-18 rhabdomyosarcoma (RRID:CVCL_1659). Pooled donor human umbilical vein endothelial cells (HUVEC, Lonza, cat. CC-2519) and human mesenchymal stem cells (hMSC, Lonza, cat. PT-2501) were purchased from Lonza (Walkersville, MD).
Cell Culture. […]

[1] = compound alone, run of 11/07/2022
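Note: compound exposure lasted 7 days starting three days after spheroid seeding.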
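Throughout, for viability, T/C: 100% = DMSO vehicle control wells with viability set relative to vehicle.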

C#Cc1c(F)ccc2cc(O)cc(-c3ncc4c(N5CC6CCC(C5)N6)nc(OCC56CCCN5CC(F)C6)nc4c3F)c12 (stereo not given)
viability, T/C (compound 0.0316 µM): 105% and 94.4% and 104% | viability, T/C (compound 0.1 µM): 106% and 91.6% and 102% | viability, T/C (compound 0.316 µM): 103% and 107% and 98.3% | viability, T/C (compound 1 µM): 87.3% and 97.4% and 111% | viability, T/C (compound 3.16 µM): 67.9% and 75.1% and 76.7% | viability, T/C (compound 10 µM): 62.3% and 59.4% and 62.5% | IC50 (curve of compound): > 10000 nM

C=C(F)C(=O)N1CCN(c2nc(OCC3CCCN3C)nc3c2CCN(c2cccc4cccc(Cl)c24)C3)CC1CC#N (stereo not given)
viability, T/C (compound 0.0316 µM): 56.9% and 67.8% and 73.2% | viability, T/C (compound 0.1 µM): 51.6% and 58.2% and 53.8% | viability, T/C (compound 0.316 µM): 47.7% and 60% and 57.1% | viability, T/C (compound 1 µM): 59% and 70.1% and 72.8% | viability, T/C (compound 3.16 µM): 61.5% and 76.8% and 82.5% | IC50 (curve of compound): 3550 nM and 4840 nM and 5670 nM

C=CC(=O)N1CCN(c2nc(=O)n(-c3c(C)ccnc3C(C)C)c3nc(-c4c(O)cccc4F)c(F)cc23)C(C)C1 (stereo not given)
viability, T/C (compound 0.0316 µM): 68.7% and 71.9% and 67.7% | viability, T/C (compound 0.1 µM): 56.3% and 59.3% and 71.6% | viability, T/C (compound 0.316 µM): 58.4% and 59% and 65.9% | viability, T/C (compound 1 µM): 57% and 64.3% and 67.5% | viability, T/C (compound 3.16 µM): 66.4% and 72.1% and 67.5% | viability, T/C (compound 10 µM): 64.8% and 65.6% and 61.1% | IC50 (curve of compound): > 10000 nM

CCN1C(C(=O)NC23CCC(C(=O)O)(CC2)CC3)C(c2cccc(Cl)c2F)C2(C(=O)Nc3cc(Cl)ccc32)C12CCCCC2 (stereo not given)
viability, T/C (compound 0.00949 µM): 109% [middle of 9 runs] | viability, T/C (compound 0.03 µM): 105% [middle of 9 runs] | viability, T/C (compound 0.0949 µM): 104% [middle of 9 runs] | viability, T/C (compound 0.3 µM): 101% [middle of 9 runs] | viability, T/C (compound 0.949 µM): 110% [middle of 9 runs] | viability, T/C (compound 3 µM): 101% [middle of 9 runs] | IC50 [1]: > 3000 nM | IC50 (curve of compound): > 3000 nM

CCN1CCN(Cc2ccc(Nc3ncc(F)c(-c4cc(F)c5nc(C)n(C(C)C)c5c4)n3)nc2)CC1
viability, T/C (compound 0.00316 µM): 114% and 101% and 112% | viability, T/C (compound 0.01 µM): 109% and 98.9% and 112% | viability, T/C (compound 0.0316 µM): 91.6% and 94.6% and 76.7% | viability, T/C (compound 0.1 µM): 75.6% and 84.4% and 76.1% | viability, T/C (compound 0.316 µM): 65.8% and 71.8% and 68% | viability, T/C (compound 1 µM): 67.9% and 74.1% and 82.3% | IC50 (curve of compound): > 1000 nM

CNC(C)C(=O)NC1CN(S(=O)(=O)c2cccc(S(=O)(=O)N3CCC4CCC(C(=O)NC(c5ccccc5)c5ccccc5)N4C(=O)C(NC(=O)C(C)NC)C3)c2)CCC2CCC(C(=O)NC(c3ccccc3)c3ccccc3)N2C1=O (stereo not given)
viability, T/C (compound 0.01 µM): 109% [middle of 9 runs] | viability, T/C (compound 0.1 µM): 106% [middle of 9 runs] | viability, T/C (compound 0.316 µM): 100% [middle of 9 runs] | IC50 (compound alone, run of 11/15/2022): > 1000 nM | IC50 (curve of compound): > 1000 nM

COc1c(OCCCN2CCOCC2)ccc2c3n(c(=NC(=O)c4cnc(N)nc4)nc12)CCN3
viability, T/C (compound 0.00316 µM): 100% and 85.6% and 103% | viability, T/C (compound 0.01 µM): 99.3% and 80.7% and 93% | viability, T/C (compound 0.0316 µM): 79.6% and 65.5% and 71.6% | viability, T/C (compound 0.1 µM): 49.5% and 56.1% and 55.9% | viability, T/C (compound 0.316 µM): 32.8% and 41.2% and 33.7% | viability, T/C (compound 1 µM): 30.5% and 33.6% and 25.3% | IC50 (curve of compound): 154 nM and 119 nM and 92.1 nM

Cc1c(S(C)(=O)=O)c(-c2cc(F)cc(N3CCN(c4ccc(NS(=O)(=O)c5ccc(NC(CCN6CCC(C(=O)OCCCP(=O)(O)O)CC6)CSc6ccccc6)c(S(=O)(=O)C(F)(F)F)c5)cc4)CC3)c2)c(-c2ccc(Cl)cc2)n1C(C)C (stereo not given)
viability, T/C (compound 0.0316 µM): 107% [middle of 7 runs] | viability, T/C (compound 0.1 µM): 107% [middle of 7 runs] | viability, T/C (compound 0.316 µM): 98.3% [middle of 7 runs] | viability, T/C (compound 3.16 µM): 84.5% [middle of 7 runs] | viability, T/C (compound 10 µM): 76.9% [middle of 7 runs] | IC50 [1]: > 10000 nM

Cc1nc(N2CCC3(CC2)COC(C)C3N)c(CO)nc1Sc1ccnc(N)c1Cl (stereo not given)
viability, T/C (compound 0.00949 µM): 102% and 96% and 110% | viability, T/C (compound 0.03 µM): 83.6% and 82.4% and 93.1% | viability, T/C (compound 0.0949 µM): 78.5% and 71.7% and 79.6% | viability, T/C (compound 0.3 µM): 63.5% and 73.1% and 66% | viability, T/C (compound 0.949 µM): 54.4% (2×) and 55% | viability, T/C (compound 3 µM): 50.1% and 45.6% and 49.1% | IC50 (curve of compound): 2620 nM and 1920 nM and 2500 nM

Cn1ncnc1[C@H]1c2n[nH]c(=O)c3cc(F)cc(c23)N[C@@H]1c1ccc(F)cc1
viability, T/C (compound 0.000316 µM): 103% and 109% and 106% | viability, T/C (compound 0.001 µM): 96.5% and 103% and 99.3% | viability, T/C (compound 0.00316 µM): 103% and 104% and 99.2% | viability, T/C (compound 0.01 µM): 96.4% (2×) and 120% | viability, T/C (compound 0.0316 µM): 103% and 95.3% and 106% | viability, T/C (compound 0.1 µM): 89.7% and 95.6% and 94.9% | IC50 (curve of compound): > 100 nM

NC(=O)C(=Cn1cnc(-c2cc(C(F)(F)F)cc(C(F)(F)F)c2)n1)c1cncnc1
viability, T/C (compound 0.000949 µM): 105% and 108% and 73.8% | viability, T/C (compound 0.003 µM): 91.3% and 106% and 96.3% | viability, T/C (compound 0.00949 µM): 101% and 105% and 88.4% | viability, T/C (compound 0.03 µM): 93.7% and 89% and 82.1% | viability, T/C (compound 0.0949 µM): 86.4% and 80.2% and 77.3% | viability, T/C (compound 0.3 µM): 57.8% and 57% and 75.2% | IC50 (curve of compound): > 300 nM

NC1CCC(NC2CC2c2ccccc2)CC1 (stereo not given)
viability, T/C (compound 0.000316 µM): 97.5% and 97% and 94.2% | viability, T/C (compound 0.001 µM): 105% and 97.8% and 90% | viability, T/C (compound 0.00316 µM): 102% and 98.4% and 89.8% | viability, T/C (compound 0.01 µM): 101% and 97.8% and 90.7% | viability, T/C (compound 0.0316 µM): 120% and 103% and 94% | viability, T/C (compound 0.1 µM): 110% and 90.2% and 92.5% | IC50 (curve of compound): > 100 nM

O=C(c1cc(Cc2n[nH]c(=O)c3ccccc23)ccc1F)N1CCN(C(=O)C2CC2)CC1
viability, T/C (compound 0.0316 µM): 105% and 66.7% and 98.1% | viability, T/C (compound 0.1 µM): 86.6% and 102% and 89.1% | viability, T/C (compound 0.316 µM): 101% and 116% and 79% | viability, T/C (compound 1 µM): 104% and 108% and 117% | viability, T/C (compound 3.16 µM): 98.2% and 110% and 94.2% | viability, T/C (compound 10 µM): 87.7% and 91.1% and 80.9% | IC50 (curve of compound): > 10000 nM

O=C(c1ccc(F)c(F)c1Nc1ccc(I)cc1F)N1CC(O)([C@@H]2CCCCN2)C1
viability, T/C (compound 0.00316 µM): 106% and 101% and 88.5% | viability, T/C (compound 0.01 µM): 82.5% and 96.7% and 83.5% | viability, T/C (compound 0.0316 µM): 87% and 76.1% and 79% | viability, T/C (compound 0.1 µM): 62.9% and 59.7% and 52.5% | viability, T/C (compound 0.316 µM): 34.9% and 34.5% and 31.9% | viability, T/C (compound 1 µM): 19.6% and 20.1% and 18.8% | IC50 (curve of compound): 176 nM and 149 nM and 123 nM
